For five compounds, MIC and inhibition of growth results are on record in ChEMBL document CHEMBL4837187, “Antimicrobial Benzyltetrahydroisoquinoline-Derived Alkaloids from the Leaves of Doryphora aromatica” (2021).

Broadly, the MIC is the least concentration at which growth counts as inhibited.

Holding throughout (type): functional
One assay has as its system Escherichia coli. The assay is described as follows: Antimicrobial activity against Escherichia coli assessed as microbial growth inhibition incubated for 16 hrs under aerobic condition by microplate reader assay.
In assay [1] the test system is Mycolicibacterium smegmatis. Nature of the assay: Antimicrobial activity against Mycobacterium smegmatis MC2 155 ATCC […] assessed as microbial growth inhibition incubated for 16 hrs under aerobic condition by microplate reader assay.
Assay [2] deals with Staphylococcus aureus. The assay is described as follows: Antimicrobial activity against methicillin-resistant Staphylococcus aureus clinical isolate 2 assessed as microbial growth inhibition incubated for 16 hrs under aerobic condition by microplate reader assay.
The subject of assay [3] is Staphylococcus aureus. The assay is described as follows: Antimicrobial activity against Staphylococcus aureus assessed as microbial growth inhibition incubated for 16 hrs under aerobic condition by microplate reader assay.
Assay [4] deals with Staphylococcus aureus. The assay is described as follows: Antimicrobial activity against methicillin-resistant Staphylococcus aureus clinical isolate 3 assessed as microbial growth inhibition incubated for 16 hrs under aerobic condition by microplate reader assay.
The subject of assay [5] is Staphylococcus aureus. The assay is described as follows: Antimicrobial activity against methicillin-resistant Staphylococcus aureus clinical isolate 1 assessed as microbial growth inhibition incubated for 16 hrs under aerobic condition by microplate reader assay.
For assay [6], the system named is Staphylococcus aureus. Nature of the assay: Antimicrobial activity against methicillin-resistant Staphylococcus aureus clinical isolate 4 assessed as microbial growth inhibition incubated for 16 hrs under aerobic condition by microplate reader assay.
The test system of assay [7] is Staphylococcus aureus. Nature of the assay: Antimicrobial activity against methicillin-resistant Staphylococcus aureus clinical isolate 5 assessed as microbial growth inhibition incubated for 16 hrs under aerobic condition by microplate reader assay.
Assay [8] deals with Mycobacterium tuberculosis. Nature of the assay: Antimicrobial activity against Mycobacterium tuberculosis H37Rv assessed as microbial growth inhibition incubated for 16 hrs under aerobic condition by microplate reader assay.
In assay [9] the test system is Mycobacterium tuberculosis. The assay is described as follows: Antimicrobial activity against Mycobacterium tuberculosis MC2 6220 BSL2 assessed as microbial growth inhibition at 6.25 uM incubated for 16 hrs under aerobic condition by microplate reader assay relative to control. The settings on record: read-out: GI.
Assay [10] deals with Mycobacterium tuberculosis. The assay is described as follows: Antimicrobial activity against Mycobacterium tuberculosis MC2 6220 BSL2MIC assessed as microbial growth inhibition incubated for 16 hrs under aerobic condition by microplate reader assay.

Take `COc1cc2cc[n+](C)c(Cc3ccc(Oc4cc(Cc5c6cc(OC)c(OC)cc6cc[n+]5C)ccc4OC)cc3)c2cc1OC`: the MIC in the assay with Escherichia coli stood at 39.6 µM; in [1], 158 µM; with Staphylococcus aureus [2], 39.6 µM; in the assay on Staphylococcus aureus [3], 9.9 µM; in the assay with Staphylococcus aureus [4], 39.6 µM; with Staphylococcus aureus [5], 9.9 µM. In addition, the MIC with Staphylococcus aureus [6] and in the assay on Staphylococcus aureus [7] was 9.9 µM in each case.

On to `COc1cc2cc[n+](C)c(O)c2cc1OC`, for which the MIC (with Escherichia coli; in assay [1]; with Staphylococcus aureus [3]) was over 100 µM throughout.

For the compound `COc1cc2cc[n+](C)c(Cc3ccc(OC)c(Oc4ccc(C=O)cc4)c3)c2cc1OC`, the MIC (in the assay with Escherichia coli; in assay [1]; with Staphylococcus aureus [3]) was over 100 µM each time.

As to `COc1cc2cc[n+](C)c(Cc3ccc(Oc4cc(Cc5c6cc(OC)c(OC)cc6cc[n+]5C)ccc4O)cc3)c2cc1OC`, the MIC (in the assay on Escherichia coli; in [1]; with Staphylococcus aureus [3]) was over 100 µM throughout.

Consider `COc1cc2c(cc1OC)[C@@H](Cc1ccc(Oc3cc(Cc4c5cc(OC)c(OC)cc5cc[n+]4C)ccc3OC)cc1)N(C)CC2`, for which the MIC in the assay with Escherichia coli is 158 µM; in assay [8], over 100 µM; in [1] it was 39.4 µM; with Staphylococcus aureus [2] it was 39.4 µM; in the assay on Staphylococcus aureus [3], 39.4 µM; in the assay on Staphylococcus aureus [4], 19.7 µM. In addition, the MIC in the assay with Staphylococcus aureus [5] was determined as 39.4 µM; in the assay on Staphylococcus aureus [6], 39.4 µM; in the assay on Staphylococcus aureus [7], 19.7 µM; in [10] it was 12.5 µM. Further, in assay [9], the inhibition of growth at 6.25 µM amounted to 70%.
